Measurements from patent publication US8242142B2, “Cyclohexylamines, phenylamines and uses thereof” (The Regents of the University of California, priority 2008, dated 2012).
pIC50: −log10 of the molar value. Like-named read-outs stand apart in the source and are kept apart here.

Columns and labels:
[1] = test system: Gli:GFP expression (Hh signaling); test: Gli:GFP transgenic zebrafish embryo assay; type: in vivo; conditions: for concentration at which inhibition of Hh signaling starts to show: zebrafish embryo assays; for concentration that blocks/abolishes Gli:GFP expression: zebrafish embryos
Source text: Generation of Gli:GFP transgenic zebrafish. […] The PCR product digested with Nhe1 and Mlu1 was ligated to GFP and used to generate transgenic zebrafish by microinjection.
Image acquisition and analysis.

mouse Smo = test: FRET analysis of Smo conformation in NIH-3T3 cells; type: cell-based; conditions: for basal FRET of mSmo-CFPN/mSmoYFPN (N-termini): SANT74 or SANT75 50 nM, SAG 100 nM, with or without Shh; for Shh-induced decrease in FRET from mSmo-CFPL2YFPC (FRETL2C) / Shh-induced increase in FRET between mSmo-CFPC and mSmo-YFPC (FRETC): 50 nM, with Shh
Method: FRET analysis using confocal microscopy. Effect of SAG, compound 21a (SANT74), and compound 21b (SANT75) on mSmo conformational change was tested by FRET in NIH-3T3 cells that were co-transfected with mouse Smo CFP and Smo YFP reporter constructs. The construction of mSmo-CFP^C/YFP^C, mSmo-CFP^N/YFP^N, and mSmo-CFP^L2YFP^C was performed as described in Zhao Y. Tong C, Jiang J., “Hedgehog regulates smoothened activity by inducing a conformational switch” Nature, 2007; 450:252-8; incorporated herein by reference. NIH-3T3 cells were cultured in DMEM containing 10% bovine calf serum and antibiotics PS at 5% CO2 in a humidified incubator. Transfection was carried out using FuGENE6 (Roche). For FRET analysis of cultured cells, CFP- and YFP-tagged constructs were transfected into NIH-3T3 cells. Transfected cells were treated in the presence of compounds with or without Shh-conditioned medium. Cells were washed with PBS, fixed with 4% formaldehyde for 20 min, and mounted on slides in 80% glycerol. Fluorescence signals were acquired with the 100× objective of a Zeiss LSM510 confocal microscope. CFP was excited by 458 nm light and the emission was collected through BP 480-520 nm filter. YFP was excited by 514 nm light and the emission was collected through BP 535-590 nm filter. CFP signal was obtained once before and once after photobleaching YFP using the full power of the 514 nm laser line for 1-2 min at the top half of each cell, leaving the bottom half unbleached that serves as an internal control. The intensity of CFP was analyzed using the Metamorph software (Universal Imaging Corn). Energy transfer efficiency was calculated using the formula: FRET %=(CFPAP−CFPBP/CFPAP)×100. Each data set was based on 10-15 individual cells. In each cell, four to five regions of interest in the photobleached area were selected for analysis.

[2] = test system: Hh signal pathway target genes Ptch1 and Gli1 mRNA; test: Quantitative real-time PCR of Hh target genes in zebrafish embryos; type: in vivo; conditions: dose dependent; for Ptch1 mRNA level: FIG. 1A; for Gli1 mRNA level: FIG. 1B
Method: Quantitative Real-time PCR. The larvae were exposed to different concentrations of small molecules from 2 hpf. Total RNA was extracted from the embryos at 36 hpf using the Trizol kit (Ambion, Austin, Tex.) according to the manufacturer's instructions. Three groups per treatment, each composed of 20 embryos, were assayed using SYBRGreen qPCR kit by real-time PCR (ABI Prism 7700 Sequence Detector System).

Stability remarks = type: physicochemical; conditions: in our studies
zebrafish embryos = test: Zebrafish embryo phenotype analysis (insulin:GFP beta cells, Flk:GFP intersegmental vessels, somites); type: in vivo; conditions: for off-target toxicity: whole zebrafish embryo assays
Method: If SANT74 and SANT75 are specific inhibitors of Hh treating, zebrafish embryos should only produce these well-characterized phenotypes. […] Using these criteria, the specificity of SANT74 and 75 in zebrafish was evaluated.
As a utility of this new inhibitor, timing requirement of Hh for normal somite formation and sprouting of ISV was tested by adding and washing away SANT74 at various developmental stages followed by phenotypic analysis.

mouse Smoothened = target: T1, mouse Smoothened (Mus musculus, UniProt P56726); test: Smo-binding assay (BODIPY-cyclopamine competition, HEK 293T cells); conditions: 5 nM BODIPY-cyclopamine, Smo-overexpressing HEK 293T cells
T1 construct: expressed in transfected cells; host or cells: HEK 293T
T1 sequence (P56726 33-793): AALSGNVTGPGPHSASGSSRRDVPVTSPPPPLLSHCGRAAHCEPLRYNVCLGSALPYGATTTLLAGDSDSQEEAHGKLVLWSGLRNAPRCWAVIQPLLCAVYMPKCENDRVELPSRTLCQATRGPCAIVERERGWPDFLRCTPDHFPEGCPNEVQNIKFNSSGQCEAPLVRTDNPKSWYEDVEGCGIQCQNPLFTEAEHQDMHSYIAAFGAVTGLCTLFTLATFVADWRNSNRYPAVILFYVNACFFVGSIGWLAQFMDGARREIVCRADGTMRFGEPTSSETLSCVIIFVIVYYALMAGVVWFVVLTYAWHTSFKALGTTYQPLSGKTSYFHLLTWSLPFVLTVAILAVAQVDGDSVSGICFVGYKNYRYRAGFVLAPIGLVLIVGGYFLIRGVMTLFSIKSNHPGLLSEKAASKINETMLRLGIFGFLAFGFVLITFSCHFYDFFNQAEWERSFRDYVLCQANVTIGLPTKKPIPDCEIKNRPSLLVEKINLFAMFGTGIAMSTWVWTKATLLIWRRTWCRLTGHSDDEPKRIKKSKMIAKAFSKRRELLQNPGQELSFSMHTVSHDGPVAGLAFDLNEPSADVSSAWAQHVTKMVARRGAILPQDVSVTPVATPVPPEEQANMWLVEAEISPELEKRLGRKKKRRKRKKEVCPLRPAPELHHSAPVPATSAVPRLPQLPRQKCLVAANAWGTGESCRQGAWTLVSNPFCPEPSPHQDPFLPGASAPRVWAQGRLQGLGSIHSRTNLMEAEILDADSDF
Method: Smo-binding assay. HEK 293T cells were cultured in DMEM containing 10% fetal bovine serum, 100 U/mL penicillin, and 100 μg/mL streptomycin to 50% confluency in 96-well plates and then transfected with a CMV promoter-driven mouse Smoothened-Myc3 expression construct (100 ng cDNA/well) with Fugene 6 (Roche) according to the manufacturer's protocols. After 12 h the cells were incubated with DMEM containing 0.5% fetal bovine serum, 10 μM Hoechst 33342, 5 nM BODIPY-labeled cyclopamine (Chen J. K., Taipale J, Cooper M. K., Beachy P. A., “Inhibition of Hedgehog signaling by direct binding of cyclopamine to Smoothened” Genes Dev., 2002; 16:2743-8; incorporated herein by reference), and various concentrations of compound 75 for 1 h. The cells were washed two times with PBS buffer and then imaged in DMEM containing 0.5% fetal bovine serum using an ImageXpress 5000A microscopy system (Molecular Devices).

Shh-LIGHT2 cells = test: Compound activities in Shh-LIGHT2 cells (Gli-dependent luciferase reporter); type: cell-based; conditions: Shh Light2, Shh-N-conditioned medium, luciferase reporter activity
Method: Shh-LIGHT2 cells (ATCC CRL-2795), a NIH-3T3 cell line stably incorporating Gli-dependent firefly luciferase and thyrmidine kinase promoter-driven Renilla luciferase reporters (Taipale J, Chen J K, Cooper M K, Wang B. Mann R K, Milenkovic L. et al. “Effects of oncogenic mutations in Smoothened and Patched can be reversed by cyclopamine” Nature 2000; 406:1005-9; incorporated herein by reference), were cultured to confluency in 96-well plates using DMEM medium containing 10% calf serum, 100 U/mL penicillin, and 100 μg/mL streptomycin. The cells were then treated with various concentrations of the compounds in DMEM containing 0.5% calf serum and a 1:20 dilution of Shh-N-conditioned medium (Chen J. K., Taipale J. Young K. E., Maiti T Beachy P. A., “Small molecule modulation of Smoothened activity” Proc. Natl. Acad. Sci. U.S.A., 2002; 99:14071-6; incorporated herein by reference). The cells were cultured for an additional 30 h under standard conditions. Firefly and Renilla luciferase activities were measured on a Veritas luminometer (Turner Biosystems) using a dual luciferase kit (Promega) according to the manufacturers' protocols.

SMILES	basal FRET of mSmo-CFPN/mSmoYFPN (N-termini) (mouse Smo)	concentration at which inhibition of Hh signaling starts to show [1] [µM]	concentration that blocks/abolishes Gli:GFP expression [1] [µM]	Shh-induced decrease in FRET from mSmo-CFPL2YFPC (FRETL2C) (mouse Smo)	Shh-induced increase in FRET between mSmo-CFPC and mSmo-YFPC (FRETC) (mouse Smo)	Ptch1 mRNA level [2]	Gli1 mRNA level [2]	stability (Stability remarks)	off-target toxicity (zebrafish embryos)	further results
CNC1CCC(N(Cc2cccc(-c3ccncc3)c2)C(=O)c2sc3ccccc3c2Cl)CC1 (stereo not drawn) [SAG, reference compound]	not affected	–	–	–	–	–	–	–	–	effect on Gli:GFP expression ([1]; same condition as SANT19, approximately 80 μM): no effect; FRETC (mouse Smo; 100 nM, independent of Shh): increase; FRETL2C (mouse Smo; 100 nM, independent of Shh): decrease
C=CCN[C@H]1CC[C@H](N(Cc2cccc(-c3ccncc3)c2)C(=O)c2sc3ccccc3c2Cl)CC1 [SANT74, N-(trans-4-(allylamino)cyclohexyl)-3-chloro-N-(3-(pyridin-4-yl)benzyl)benzo[b]thiophene-2-carboxamide]	not affected	5	20	blocked	blocked	reduced	reduced	relatively stable	no obvious off-target toxicity	intersegmental blood vessels (ISV) (zebrafish embryos; 20 μM, Flk:GFP transgenic zebrafish): significantly reduced; insulin:GFP cells (zebrafish embryos; 20 μM, insulin:GFP transgenic zebrafish): significantly reduced; effect on sprouting of ISV (zebrafish embryos; added after 24 hpf): no longer had any effect; somite phenotype (zebrafish embryos; added for 4 hours before 21 hpf): induce U shape somite formation; sprouting of ISV (zebrafish embryos; added upon fertilization, washed away before 17 hpf): could occur normally; concentration at which embryos no longer developed any extended ISVs (zebrafish embryos; dose dependent inhibition of angiogenesis): ≥ 20 µM; circulation by microangiographic analysis (zebrafish embryos; embryos with defective ISVs): lacked circulation
CCCN[C@H]1CC[C@H](N(Cc2cccc(-c3ccncc3)c2)C(=O)c2sc3ccccc3c2Cl)CC1 [SANT75, 3-chloro-N-(trans-4-(propylamino)cyclohexyl)-N-(3-(pyridin-4-yl)benzyl)benzo[b]thiophene-2-carboxamide]	not affected	5	20	blocked	blocked	reduced	reduced	relatively stable	no obvious off-target toxicity	BODIPY-cyclopamine/Smo binding (mouse Smoothened): effectively abrogate; pIC50 (Shh-LIGHT2 cells; read-out: IC50): 7.70
CC1=C2C[C@H]3[C@@H](CC=C4C[C@@H](O)CC[C@@]43C)[C@@H]2CC[C@]12O[C@@H]1C[C@H](C)CN[C@H]1[C@H]2C [cyclopamine, reference compound]	–	–	–	–	–	–	–	–	–	Gli:GFP expression upon treatment ([1]; transgenic embryos, concentration not given): abolished; pIC50 (Shh-LIGHT2 cells): 6.52
